For one data set, the system named is chick embryo. In words: Embryonic toxicity, HCT116 in ovo study. The class given is in vivo, chick (White Leghorn). Particulars: for embryo tolerability: all doses tested, no statistically significant difference to solvent control; for % Alive / % Dead / Alive (embryos at E18) / Dead (embryos at E18): HCT116 study. The method, then: (§1) 10^6 tumor cells (H460, HT29 or HCT116) were grafted onto the upper chorioallantoic membrane (CAM) of the developing chick embryo on embryonic day 9 (E9). Access to the upper CAM was through a small hole drilled through the eggshell of fertilized White Leghorn eggs (into the air sac) on E9 (15 eggs per experimental group).
(§2) 100 μl of freshly prepared experimental compound, vehicle control or standard-of-care (SoC) drug at their working concentrations were pipetted onto the tumor graft at E11, E13, E15 and E17. On day E18, the upper CAM (with tumor) was removed, washed by PBS buffer and then directly transferred in PFA (fixation for 48 hrs). After that, tumors were carefully cut away from normal CAM tissue and weighed.
Embryonic viability was checked daily. The number of dead embryos was also counted on E18, to evaluate treatment-induced embryo toxicity.

The next data set concerns HCT116 tumors. In words: Chick embryo chorioallantoic membrane (CAM) assay, in ovo efficacy. The conditions noted are these: for doses giving statistically significant regression of tumor growth (mean tumor weight at E18): L2Zn3 70.5, 141, 282 μM, L2Cu3 75, 150, 300 μM. The class given is in vivo, human tumor cells on chick embryo CAM. The method, then: FIG. 24. Activity of [L2Cu3]^6+ and [L2Zn3]^6+ against primary HCT116 tumors. The results presented represent the mean tumour weight ±SEM following treatment at 3 different doses of [L2Cu3]^6+ and [L2Zn3]^6+: L2Zn3 [1]=70.5 μM, L2Zn3 [2]=141 μM, L2Zn3 [3]=282 μM; L2Cu3 [1]=75 μM, L2Cu3[2]=150 μM, L2Cu3[3]=300 μM. SoC doxorubicin. Statistical analysis by one way ANOVA (*): 0.05≥p value >0.01; (**): 0.01≥p value >0.001; (***): 0.001≥p value; (****): 0.0001≥p value. Number per experimental group n=12-15.
FIG. 25. Evaluation of the effects of [L2Cu3]^6+ and [L2Zn3]^6+ on primary HCT116 metastasis to the lower CAM. Relative ALU expression (relative to chicken GAPDH) as a quantitive marker of metastasis of human cells to the lower CAM. Relative expression ±SEM. L2Zn3 [1]=70.5 μM, L2Zn3 [2]=141 μM, L2Zn3 [3]=282 μM; L2Cu3 [1]=75 μM, L2Cu3[2]=150 μM, L2Cu3[3]=300 μM. SoC doxorubicin. Number per experimental group n=7-8.
(§3) [L2Cu3]^6+ and [L2Zn3]^6+ were evaluated at three different doses for in ovo anti-cancer activity, toxicity and anti-metastatic activity against tumors initiated from three different human cancer cell line models (H460, HT29, HCT116), in the chick embryo chorioallantoic membrane (CAM) assay.
(§4) Each compound was provided to the contract research organisation (CRO) Inovotion (La Tronche, France) conducting the in ovo study, as a powder pre-weighed in single vials (2 equivalents of ligand, 3 equivalents of metal; and stored at room temperature). Before use, this was then dissolved in DMSO to 50 mM to generate a stock solution and further freshly diluted in RPM11640 or McCoys aqueous cell culture media for administration.
A standard of care (SoC) drug for the particular tumour type was tested concurrently as a comparative control for in vivo efficacy and toxicity evaluation. […]
(§5) On day E18, a 1 cm^2 portion of the lower CAM was collected (n=8 per group), stored at −20° C. and later processed to extract DNA. Samples were analysed for human genomic DNA (qPCR for Alu sequences) as a quantitative marker of tumor metastasis to the lower CAM.

A further data set relates to HT29 tumors. The description is as above. The class given is in vivo, human tumor cells on chick embryo CAM. The conditions noted are these: for dose giving statistically significant regression of tumor growth (mean tumor weight at E18), comparable to SoC: L2Zn3 26.6, 53.2, 106.4 μM, L2Cu3 23.8, 65.7, 131.46 μM, SoC doxorubicin; for HT29 tumor cell metastasis to the lower CAM: any of the tested doses, data not shown. The method, then: FIG. 23. Activity of [L2Cu3]^6+ and [L2Zn3]^6+ against primary HT29 tumors. The results presented represent the mean tumour weight ±SEM following treatment at 3 different doses of [L2Cu3]^6+ and [L2Zn3]^6+: L2Zn3 [1]=26.6 μM, L2Zn3 [2]=53.2 μM, L2Zn3 [3]=106.4 μM; L2Cu3 [1]=23.8 μM, L2Cu3[2]=65.7 μM, L2Cu3[3]=131.46 μM. SoC doxorubicin. Statistical analysis by one way ANOVA (*): 0.05≥p value >0.01; (**): 0.01≥p value >0.001; (***): 0.001≥p value; (****): 0.0001≥p value. Number per experimental group n=10-14.
as §3, §4
A standard of care (SoC) drug for the particular tumour type was tested concurrently as a comparative control for in vivo efficacy and toxicity evaluation. A solvent control served as a negative control for both SoC and experimental compounds.
as §1, §2, §5

Where [1] appears, read: dose [1]: L2Zn3 70.5 μM, L2Cu3 75 μM.
[2] abbreviates: dose [2]: L2Zn3 141 μM, L2Cu3 150 μM.
[3] abbreviates: dose [3]: L2Zn3 282 μM, L2Cu3 300 μM.

SMILES strings stand for the structures. “Also recorded” adds a separate entry of the source.

For `[Cu+2].[Cu+2].[Cu+2].c1ccc(-c2csc(NCCN(CCNc3nc(-c4ccccn4)cs3)CCNc3nc(-c4ccccn4)cs3)n2)nc1.c1ccc(-c2csc(NCCN(CCNc3nc(-c4ccccn4)cs3)CCNc3nc(-c4ccccn4)cs3)n2)nc1` [[L2Cu3]^6+], the embryo tolerability entry in the data set on chick embryo was “well tolerated”. Further, in the data set with chick embryo (setting [1]), the “% Alive” value is recorded as 100%, the “% Dead” value was found to be 0%, the “Alive (embryos at E18)” value came to 14 and the “Dead (embryos at E18)” value amounted to 0. For the same compound, in the data set with chick embryo (setting [2]), the “% Alive” value turned out to be 86.67%, the “% Dead” value is 13.33%, the “Alive (embryos at E18)” value is 13 and the “Dead (embryos at E18)” value is listed as 2. In the data set with chick embryo (setting [3]), the “% Alive” value came to 86.67%, the “% Dead” value turned out to be 13.33%, the “Alive (embryos at E18)” value was determined as 13 and the “Dead (embryos at E18)” value is on record as 2. Moreover, in the data set with HCT116 tumors, the “doses giving statistically significant regression of tumor growth (mean tumor weight at E18)” value is recorded as “all three tested doses”. Moreover, in the data set with HT29 tumors, the “dose giving statistically significant regression of tumor growth (mean tumor weight at E18), comparable to SoC” value was “highest tested dose” and the “HT29 tumor cell metastasis to the lower CAM” value is “no reduction”.
Turning to `[Zn+2].[Zn+2].[Zn+2].c1ccc(-c2csc(NCCN(CCNc3nc(-c4ccccn4)cs3)CCNc3nc(-c4ccccn4)cs3)n2)nc1.c1ccc(-c2csc(NCCN(CCNc3nc(-c4ccccn4)cs3)CCNc3nc(-c4ccccn4)cs3)n2)nc1` [[L2Zn3]^6+], the embryo tolerability entry in the data set with chick embryo is recorded as “well tolerated”. Moreover, in the data set with chick embryo (setting [1]), the “% Alive” value is listed as 100%, the “% Dead” value is given as 0%, the “Alive (embryos at E18)” value is recorded as 15 and the “Dead (embryos at E18)” value was 0. In the data set on chick embryo (setting [2]), the “% Alive” value turned out to be 86.67%, the “% Dead” value was 13.33%, the “Alive (embryos at E18)” value was 13 and the “Dead (embryos at E18)” value came out at 2. In addition, in the data set with chick embryo (setting [3]), the “% Alive” value was 80.00%, the “% Dead” value is 20.00%, the “Alive (embryos at E18)” value stood at 12 and the “Dead (embryos at E18)” value is 3. For the same compound, the “doses giving statistically significant regression of tumor growth (mean tumor weight at E18)” value in the data set on HCT116 tumors is “the highest two doses tested”. Besides, in the data set on HCT116 tumors (all three doses, comparable to SoC doxorubicin), the “HCT116 metastatic load in the lower CAM (qPCR for Alu sequences)” value is “Decreases in HCT116 metastatic load; also recorded: strong regression tendency”. In the data set with HT29 tumors, the “dose giving statistically significant regression of tumor growth (mean tumor weight at E18), comparable to SoC” value is “highest tested dose” and the “HT29 tumor cell metastasis to the lower CAM” value is recorded as “no reduction”.

For the origin of these results see patent US20230322815A1, “NOVEL COMPOUNDS AND THERAPEUTIC USES THEREOF” (University of Huddersfield, priority 2020, published 2023).
